Values joined by “and” are separate entries in the source; they are usually repeats but may differ in a detail not shown here. Equal values may be shown once.

For the experiment, the system named is 855422-203-R-J1-PDC complex spheroid viability. As to the kind of experiment: Anticancer human tumor 855422-203-R-J1-PDC patient-derived bladder carcinoma cell line growth inhibition. The note with it: for viability, T/C: stronger effect = lower value. The gist of the method:
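Multicellular complex spheroids of tumor cells with human endothelial cells (HUVEC) and mesenchymal stem cells; the LSD1 inhibitor iadademstat was combined with standard-of-care or investigational agents. Top concentration at or near clinical Cmax, half-log dilutions; final DMSO ≤0.25%.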

The mark [1] stands for this setting: curve of first compound, second compound 0.1 µM.
Setting [2] is: curve of first compound, second compound 0.316 µM.
The mark [3] stands for this setting: curve of first compound, second compound 1 µM.
The mark [4] stands for this setting: curve of first compound, second compound 3.16 µM.
Setting [5] is: curve of first compound, second compound 10 µM.
Setting [6] is: second compound 0.1 µM, first compound 0.00316 µM.
[7] abbreviates: second compound 0.1 µM, first compound 0.01 µM.
[8] abbreviates: second compound 0.1 µM, first compound 0.0316 µM.
Setting [9] is: second compound 0.1 µM, first compound 0.1 µM.
[10] abbreviates: second compound 0.1 µM, first compound 0.316 µM.
Setting [11] is: second compound 0.1 µM, first compound 1 µM.
The mark [12] stands for this setting: second compound 0.316 µM, first compound 0.00316 µM.
[13] abbreviates: second compound 0.316 µM, first compound 0.01 µM.
[14] abbreviates: second compound 0.316 µM, first compound 0.0316 µM.
The mark [15] stands for this setting: second compound 0.316 µM, first compound 0.1 µM.
The mark [16] stands for this setting: second compound 0.316 µM, first compound 0.316 µM.
The mark [17] stands for this setting: second compound 0.316 µM, first compound 1 µM.
Setting [18] is: second compound 1 µM, first compound 0.00316 µM.
Setting [19] is: second compound 1 µM, first compound 0.01 µM.
Setting [20] is: second compound 1 µM, first compound 0.0316 µM.
Setting [21] is: second compound 1 µM, first compound 0.1 µM.
[22] abbreviates: second compound 1 µM, first compound 0.316 µM.
[23] abbreviates: second compound 1 µM, first compound 1 µM.
Where [24] appears, read: second compound 3.16 µM, first compound 0.00316 µM.
Setting [25] is: second compound 3.16 µM, first compound 0.01 µM.
Setting [26] is: second compound 3.16 µM, first compound 0.0316 µM.
Setting [27] is: second compound 3.16 µM, first compound 0.1 µM.
The mark [28] stands for this setting: second compound 3.16 µM, first compound 0.316 µM.
[29] abbreviates: second compound 3.16 µM, first compound 1 µM.
[30] abbreviates: second compound 10 µM, first compound 0.00316 µM.
[31] abbreviates: second compound 10 µM, first compound 0.01 µM.
Setting [32] is: second compound 10 µM, first compound 0.0316 µM.
Where [33] appears, read: second compound 10 µM, first compound 0.1 µM.
The mark [34] stands for this setting: second compound 10 µM, first compound 0.316 µM.
Where [35] appears, read: second compound 10 µM, first compound 1 µM.
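Note: drug exposure lasted 7 days starting on day 3 after seeding.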
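Throughout, for viability, T/C: luminescence viability as percent of DMSO vehicle wells = 100%.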

On to `COc1cc(C2c3cc4c(cc3C(OC3OC5COC(C)OC5C(O)C3O)C3COC(=O)C23)OCO4)cc(OC)c1O` (stereo not drawn) + NC1CC1c1ccc(-c2cccc(O)c2)cc1, for which the IC50 under setting [1] was 148 nM; the half-inhibitory concentration (IC50) under setting [2] was 155 nM; the concentration for half-maximal inhibition (IC50) under setting [3] came out at 129 nM; the IC50 under setting [4] was 119 nM; the IC50 under setting [5] was determined as 92.1 nM. Further, the viability, T/C by setting is: (second compound 0.1 µM, first compound 0.00949 µM) 96.3%; (second compound 0.1 µM, first compound 0.03 µM) 98.3%; (second compound 0.1 µM, first compound 0.0949 µM) 59.5%; (second compound 0.1 µM, first compound 0.3 µM) 31.1%; (second compound 0.1 µM, first compound 0.949 µM) 19.7%; (second compound 0.1 µM, first compound 3 µM) 10.7%. The viability, T/C reads like this: (second compound 0.316 µM, first compound 0.00949 µM) 101%; (second compound 0.316 µM, first compound 0.03 µM) 102%; (second compound 0.316 µM, first compound 0.0949 µM) 60.9%; (second compound 0.316 µM, first compound 0.3 µM) 32.6%; (second compound 0.316 µM, first compound 0.949 µM) 19.7%; (second compound 0.316 µM, first compound 3 µM) 11.6%. Moreover, the viability, T/C (second compound 1 µM, first compound 0.00949 µM) is 91.6%; the viability, T/C (second compound 1 µM, first compound 0.03 µM) is 95.8%; the viability, T/C (second compound 1 µM, first compound 0.0949 µM) is 55.4%; the viability, T/C (second compound 1 µM, first compound 0.3 µM) is 28.9%; the viability, T/C (second compound 1 µM, first compound 0.949 µM) was 17.6%; the viability, T/C (second compound 1 µM, first compound 3 µM) was 10.9%. In addition, the viability, T/C was 100% (second compound 3.16 µM, first compound 0.00949 µM); 96.9% (second compound 3.16 µM, first compound 0.03 µM); 52.3% (second compound 3.16 µM, first compound 0.0949 µM); 27.9% (second compound 3.16 µM, first compound 0.3 µM); 16.2% (second compound 3.16 µM, first compound 0.949 µM); 8.34% (second compound 3.16 µM, first compound 3 µM). Besides, the viability, T/C reads like this: (second compound 10 µM, first compound 0.00949 µM) 99.5%; (second compound 10 µM, first compound 0.03 µM) 97%; (second compound 10 µM, first compound 0.0949 µM) 46.5%; (second compound 10 µM, first compound 0.3 µM) 26.6%; (second compound 10 µM, first compound 0.949 µM) 18.4%; (second compound 10 µM, first compound 3 µM) 9.12%.
Regarding `CC1COCCN1c1cc(-c2ccnn2C)c2ccnc(-c3ccn[nH]3)c2n1` (stereo not drawn) + NC1CC1c1ccc(-c2cccc(O)c2)cc1, the IC50 turned out to be 131 nM under setting [1]; 102 nM under setting [2]; 94.7 nM under setting [3]; 106 nM under setting [4]; 77.5 nM under setting [5]. Besides, the viability, T/C was 111% under setting [6]; 101% under setting [7]; 100% under setting [8]; 54.5% under setting [9]; 34.8% under setting [10]; 35.5% under setting [11]. In addition, the viability, T/C runs as follows: under setting [12], 102%; under setting [13], 93%; under setting [14], 99.7%; under setting [15], 50.2%; under setting [16], 35%; under setting [17], 31%. The viability, T/C runs as follows: under setting [18], 94.7%; under setting [19], 97.8%; under setting [20], 89%; under setting [21], 48.3%; under setting [22], 30.8%; under setting [23], 33.9%. Moreover, the viability, T/C is, setting by setting: under setting [24], 91.8%; under setting [25], 99.5%; under setting [26], 94.7%; under setting [27], 51%; under setting [28], 30.1%; under setting [29], 29.5%. The viability, T/C under setting [30] was 90.7%; the viability, T/C under setting [31] was 90.5%; the viability, T/C under setting [32] is 80.9%; the viability, T/C under setting [33] was 41.2%; the viability, T/C under setting [34] was 27.1%; the viability, T/C under setting [35] is 26.1%.
In the case of `CC(C)c1c(-c2ccccc2)nc2c(C#N)c[nH]n2c1=O`, the viability, T/C (compound 0.0316 µM) is 98.3% and 101%; the viability, T/C (compound 0.1 µM) was 104% and 106%; the viability, T/C (compound 0.316 µM) was 96.1% and 107%; the viability, T/C (compound 1 µM) was 104% and 99.9%; the viability, T/C (compound 3.16 µM) was 94.5% and 99.2%; the viability, T/C (compound 10 µM) is 95.4% and 90.9%. Besides, the IC50 (curve of compound) was more than 10000 nM.
For the compound `O=C(c1cc(Cc2n[nH]c(=O)c3ccccc23)ccc1F)N1CCN(C(=O)C2CC2)CC1`, the viability, T/C is 88.5% and 98.6% (compound 0.0316 µM); 94.1% and 111% (compound 0.1 µM); 96% and 110% (compound 0.316 µM); 88.8% and 98.8% (compound 1 µM); 86.5% and 91.7% (compound 3.16 µM); 63.3% and 76.1% (compound 10 µM). Besides, the IC50 (curve of compound) is more than 10000 nM.
Turning to `CC[C@@]1(O)C(=O)OCc2c1cc1n(c2=O)Cc2cc3c(CN(C)C)c(O)ccc3nc2-1`, the viability, T/C by setting is: (compound 0.000316 µM) 90.1% and 96.8%; (compound 0.001 µM) 95.2% and 97.2%; (compound 0.00316 µM) 89.8% and 94.5%; (compound 0.01 µM) 35.8% and 39.8%; (compound 0.0316 µM) 25.6% and 21.1%; (compound 0.1 µM) 14.6% and 14.9%. Moreover, the IC50 (curve of compound) was 7.4 nM and 8.07 nM.
Consider `CC1(C)CCC(CN2CCN(c3ccc(C(=O)NS(=O)(=O)c4ccc(NCC5CCOCC5)c([N+](=O)[O-])c4)c(Oc4cnc5[nH]ccc5c4)c3)CC2)=C(c2ccc(Cl)cc2)C1`, for which the viability, T/C is, setting by setting: (compound 0.0316 µM) 102% and 97.3%; (compound 0.1 µM) 105% and 94.6%; (compound 0.316 µM) 104% and 110%; (compound 1 µM) 103% and 107%; (compound 3.16 µM) 80.6% and 83.9%; (compound 10 µM) 17.9% and 15.2%. The IC50 (curve of compound) was 5550 nM and 5570 nM.
For the compound `Nc1ncn(C2CC(O)C(CO)O2)c(=O)n1` (stereo not drawn) + NC1CCC(NC2CC2c2ccccc2)CC1, the half-inhibitory concentration (IC50) is, setting by setting: under setting [1], more than 1000 nM; under setting [2], more than 1000 nM; under setting [3], more than 1000 nM; under setting [4], more than 1000 nM; under setting [5], more than 1000 nM. Besides, the viability, T/C is, setting by setting: under setting [6], 91.5%; under setting [7], 91.2%; under setting [8], 95.6%; under setting [9], 85.5%; under setting [10], 83.1%; under setting [11], 85.2%. The viability, T/C by setting is: under setting [12], 93.6%; under setting [13], 93.1%; under setting [14], 90.2%; under setting [15], 92.2%; under setting [16], 83%; under setting [17], 84.7%. Further, the viability, T/C is 88.6% under setting [18]; 94.5% under setting [19]; 93.6% under setting [20]; 86.4% under setting [21]; 90.1% under setting [22]; 85.3% under setting [23]. In addition, the viability, T/C is, setting by setting: under setting [24], 87.5%; under setting [25], 81.1%; under setting [26], 79.7%; under setting [27], 91.4%; under setting [28], 85.9%; under setting [29], 88.9%. Moreover, the viability, T/C reads like this: under setting [30], 84.3%; under setting [31], 86.9%; under setting [32], 85.3%; under setting [33], 88.4%; under setting [34], 88.2%; under setting [35], 80.5%.

As usually defined, the IC50 is the concentration needed to halve the response being measured. As usually defined, the viability, T/C is the result in the treated group divided by that in the control group, in per cent.

The record behind these values is PubChem BioAssay AID1918943 (Molecular Pharmacology Branch, DTP, NCI, 2023).
